# According to patent US20130309306A1, “INTRAPULMONARY BENZODIAZEPINE FOR THE TREATMENT AND PREVENTION OF SEIZURES” (priority 2010, published 2013):
# Columns and labels:
# Type in all cases: in vivo
# PTZ-induced seizures = assay: PTZ seizure threshold test in mice (intravenous PTZ infusion), Example 1
# Method: (§1) Male NIH Swiss mice (22-30 g) were kept in a vivarium under controlled environmental conditions (temperature, 22-26° C.; humidity, 40-50%) with an artificial 12-h light/dark cycle. Wood chips were used in all cages. Experiments were performed during the light phase of the light/dark cycle after a minimum 30-min period of acclimation to the experimental room. The animal facilities were fully accredited by the Association for Assessment and Accreditation of Laboratory Animal Care. All studies were performed under protocols approved by the Animal Care and Use Committee of the University of California, Davis in strict compliance with the Guide for the Care and Use of Laboratory Animals of the National Research Council (National Academy Press, Washington, D.C.).
# Intratracheal administration of midazolam was carried out as described by Oka et al. (2006). In brief, mice were briefly anesthetized using isoflurane anesthesia (4% isoflurane). The animals were immediately placed on a surgical board held at a 60° angle. The animal's mouth was kept open by hanging the upper incisors on a hook to facilitate detection of the epiglottis. An operating light was used to illuminate the view of the pharynx after displacement of the tongue with a spatula. A syringe fitted with a blunted 24-gauge/25-mm was pushed against the soft palate to enter the trachea past the vocal cords. When the tracheal cartilage ring is felt, the needle is considered properly placed within the tracheal lumen. The needle was inserted almost to the bottom of the trachea. When the animals began to show signs that the anesthesia was waning, the liquid sample was gently injected at a dose volume of 0.25 ml/kg. After the injection of solution, air (1 ml syringe) was blown inside the lungs to uniformly distribute the drug in the lungs. Following the injection, the needle was gently removed and animal was held vertically for 2 min to facilitate the downward movement of liquid in the lungs. The animal was allowed 10 min to recover fully from the anesthesia as confirmed by normal spontaneous exploratory behavior. Seizure testing then commenced. For each of the seizure tests, we verified that there was no residual effect of the anesthetic on responsiveness.
# The thresholds for various behavioral seizure stages induced by the GABA receptor antagonists PTZ and picrotoxin were determined by infusing the convulsant drugs via a 27 gauge-¾ inch “butterfly” needle inserted into the lateral tail vein. The needle was secured to the tail vein by a narrow piece of adhesive tape and the animal was permitted to move freely inside an inverted 2 litre glass beaker with free aeration from the top. PTZ (10 mg/ml) (Akula et al., 2008), and picrotoxin (1 mg/ml) (Chan et al., 2006) was infused at a constant rate of 0.5 ml/min using a Beckton Dickinson (1 ml) syringe mounted on an infusion pump (Model ‘11’ plus syringe pump; Harvard Apparatus, Holliston, Mass., USA). The syringe was connected to the needle by polyethylene tubing. The infusion was stopped at 3 min or at the onset of tonic extension, whichever occurred first. The thresholds to the following endpoints were determined: (i) the first myoclonic jerk; (ii) the onset of generalized clonus with loss of righting reflexes; and (iii) the onset of tonic extension. Latencies were measured from the start of convulsant infusion to the onset of all these three events. The threshold value (mg/kg) for each endpoint was determined according to the following formula: (infusion duration [sec]×infusion rate [ml/min]×convulsant drug concentration [mg/ml]×1000)/(60 [sec]×weight of mouse [g]).
# Results are expressed as mean±S.E.M.; the significance of the difference in the responses of treatment groups with respect to control is based on one-way analysis of variance (ANOVA) followed by specific post-hoc comparisons using Tukey's test. Differences were considered statistically significant when the probability of error was less than 0.05 (P<0.05). […]
# [1] = tested on: picrotoxin-induced seizure; assay: Picrotoxin seizure threshold test in mice (intravenous infusion)
# [2] = tested on: kainic acid induced seizure; assay: Kainic acid seizure threshold test in mice (intravenous infusion)
# Method: as §1
# Intratracheal administration of midazolam was carried out as described by Oka et al. (2006). In brief, mice were briefly anesthetized using isoflurane anesthesia (4% isoflurane). The animals were immediately placed on a surgical board held at a 60° angle. The animal's mouth was kept open by hanging the upper incisors on a hook to facilitate detection of the epiglottis. […]
# Results are expressed as mean±S.E.M.; the significance of the difference in the responses of treatment groups with respect to control is based on one-way analysis of variance (ANOVA) followed by specific post-hoc comparisons using Tukey's test. […]
smiles,measurement,setting,value
"Cc1ncc2n1-c1ccc(Cl)cc1C(c1ccccc1F)=NC2 [Midazolam, midazolam]","anticonvulsant activity, PTZ i.v. seizure threshold model","PTZ-induced seizures; 25 μg/kg and 50 μg/kg intratracheally, 10 minutes before intravenous PTZ (FIG. 5)",active as anticonvulsant
same,"dose required for anticonvulsant activity, PTZ i.v. seizure threshold model",PTZ-induced seizures; administered intraperitoneally (FIG. 5),0.5 mg/kg
same,"dose required for anticonvulsant activity, PTZ i.v. seizure threshold model","PTZ-induced seizures; administered intravenously, 10 minutes before intravenous PTZ (FIG. 5)",0.1 to 0.2 mg/kg
same,"thresholds for all seizure signs (myoclonic jerk, clonus, tonic extension) vs vehicle","PTZ-induced seizures; intraperitoneal 500, 1000, 2500 and 5000 μg/kg, pretreatment 15 min (FIG. 1A)",significant elevation
same,thresholds for seizure signs vs vehicle,"PTZ-induced seizures; intratracheal 12.5 μg/kg, pretreatment 10 min",enhanced the seizure threshold for clonic but ineffective against tonic extensor phases
same,time of maximal effect,PTZ-induced seizures; intratracheal 100 μg/kg,5 to 15 min
same,time course: threshold vs vehicle pretreated animals,"PTZ-induced seizures; intratracheal 100 μg/kg, pretreatment 5, 10, 20, 40 and 60 min (FIG. 2)",elevation in threshold
same,thresholds for seizure signs vs vehicle,"PTZ-induced seizures; intratracheal 25, 50 and 100 μg/kg, pretreatment 10 min (FIG. 1B)",effective
same,"seizure threshold, picrotoxin infusion","[1]; intraperitoneal 100 μg/kg, pretreatment 10 min",effective in enhancing the seizure threshold for only clonic phase and ineffective against tonic extension
same,"thresholds for all seizure signs, picrotoxin infusion","[1]; intraperitoneal 250, 500 and 1000 μg/kg, pretreatment 10 min (FIG. 3A)",significant elevation
same,"seizure thresholds, picrotoxin infusion","[1]; intratracheal 25 and 50 μg/kg, pretreatment 10 min (FIG. 3B)",effective
same,"thresholds for clonus and tonic extensor phases, kainic acid infusion","[2]; intraperitoneal 2000 μg/kg, pretreatment 10 min (FIG. 4A)",significant elevation
same,"seizure thresholds, kainic acid infusion","[2]; intratracheal 100 μg/kg, pretreatment 10 min (FIG. 4B)",effective
